ChEMBL document CHEMBL5723379, “Affinity On-target Cellular Literature for EUbOPEN Chemogenomic Library” (2024)
Values belong to the compound of their own block, whether it stands above or below them.

Columns and labels:
[1] = molecular target: T1, Oxysterols receptor LXR-beta (Homo sapiens, UniProt P55055); assay: Affinity On-target Cellular interaction: (Reporter gene assay (HEK293T cells)) EUB0000183b NR1H2; format: functional, cell-based, HEK-293T; parameters: mode of action Antagonist, recommended concentration 3 uM
T1 sequence (P55055 whole entry): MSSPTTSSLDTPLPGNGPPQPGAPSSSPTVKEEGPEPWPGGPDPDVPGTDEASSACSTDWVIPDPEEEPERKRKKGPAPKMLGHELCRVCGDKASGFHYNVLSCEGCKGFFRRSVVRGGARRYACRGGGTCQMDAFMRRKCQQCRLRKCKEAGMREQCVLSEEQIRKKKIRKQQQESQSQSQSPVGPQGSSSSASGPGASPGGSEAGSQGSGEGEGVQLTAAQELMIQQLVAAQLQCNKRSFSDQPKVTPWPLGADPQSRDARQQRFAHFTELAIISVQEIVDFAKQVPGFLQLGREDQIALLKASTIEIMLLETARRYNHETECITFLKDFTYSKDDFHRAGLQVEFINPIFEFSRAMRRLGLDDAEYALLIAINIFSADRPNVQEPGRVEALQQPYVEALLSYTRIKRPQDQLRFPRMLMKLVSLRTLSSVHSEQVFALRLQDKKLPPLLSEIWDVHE

[2] = molecular target: T2, Oxysterols receptor LXR-alpha (Homo sapiens, UniProt Q13133); assay: Affinity On-target Cellular interaction: (Reporter gene assay (HEK293T cells)) EUB0000183b NR1H3; format: functional, cell-based, HEK-293T; parameters: mode of action Antagonist, recommended concentration 3 uM
T2 sequence (Q13133 whole entry): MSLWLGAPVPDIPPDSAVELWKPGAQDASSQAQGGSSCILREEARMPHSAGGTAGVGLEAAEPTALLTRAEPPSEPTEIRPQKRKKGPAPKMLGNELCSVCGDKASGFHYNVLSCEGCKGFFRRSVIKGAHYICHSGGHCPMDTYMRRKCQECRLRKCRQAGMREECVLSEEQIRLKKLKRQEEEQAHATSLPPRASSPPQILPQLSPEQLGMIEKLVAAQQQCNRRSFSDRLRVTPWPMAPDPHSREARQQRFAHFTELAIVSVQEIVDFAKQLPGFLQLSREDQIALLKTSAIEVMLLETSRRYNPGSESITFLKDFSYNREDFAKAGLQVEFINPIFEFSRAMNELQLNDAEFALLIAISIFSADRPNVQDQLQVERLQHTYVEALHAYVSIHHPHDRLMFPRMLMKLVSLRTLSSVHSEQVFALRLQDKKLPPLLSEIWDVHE

[3] = molecular target: T3, Peroxisome proliferator-activated receptor delta (Homo sapiens, UniProt Q03181)
T3 sequence (Q03181 whole entry): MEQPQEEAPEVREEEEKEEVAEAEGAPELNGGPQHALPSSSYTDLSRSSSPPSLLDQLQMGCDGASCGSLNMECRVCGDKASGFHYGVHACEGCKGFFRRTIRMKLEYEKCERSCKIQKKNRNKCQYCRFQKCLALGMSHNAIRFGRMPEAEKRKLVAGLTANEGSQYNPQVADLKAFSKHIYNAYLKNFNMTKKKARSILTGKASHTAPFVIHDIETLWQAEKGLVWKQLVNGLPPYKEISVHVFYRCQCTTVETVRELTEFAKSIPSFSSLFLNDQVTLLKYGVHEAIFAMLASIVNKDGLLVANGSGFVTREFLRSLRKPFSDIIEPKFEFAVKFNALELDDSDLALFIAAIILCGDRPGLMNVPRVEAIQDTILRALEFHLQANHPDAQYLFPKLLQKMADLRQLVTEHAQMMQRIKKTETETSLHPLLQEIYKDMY

[4] = molecular target: T3, Peroxisome proliferator-activated receptor delta; assay: Affinity On-target Cellular interaction: (Reporter gene assay (HEK293T cells)) EUB0001151a PPARD; format: functional, cell-based, HEK-293T; parameters: mode of action Antagonist, recommended concentration 1 uM
[5] = molecular target: T4, Peroxisome proliferator-activated receptor gamma (Homo sapiens, UniProt P37231); assay: Affinity On-target Cellular interaction: (Reporter gene assay (HEK293T cells)) EUB0000188b PPARG; format: functional, cell-based, HEK-293T; parameters: mode of action Agonist, recommended concentration 1 uM
T4 sequence (P37231 whole entry): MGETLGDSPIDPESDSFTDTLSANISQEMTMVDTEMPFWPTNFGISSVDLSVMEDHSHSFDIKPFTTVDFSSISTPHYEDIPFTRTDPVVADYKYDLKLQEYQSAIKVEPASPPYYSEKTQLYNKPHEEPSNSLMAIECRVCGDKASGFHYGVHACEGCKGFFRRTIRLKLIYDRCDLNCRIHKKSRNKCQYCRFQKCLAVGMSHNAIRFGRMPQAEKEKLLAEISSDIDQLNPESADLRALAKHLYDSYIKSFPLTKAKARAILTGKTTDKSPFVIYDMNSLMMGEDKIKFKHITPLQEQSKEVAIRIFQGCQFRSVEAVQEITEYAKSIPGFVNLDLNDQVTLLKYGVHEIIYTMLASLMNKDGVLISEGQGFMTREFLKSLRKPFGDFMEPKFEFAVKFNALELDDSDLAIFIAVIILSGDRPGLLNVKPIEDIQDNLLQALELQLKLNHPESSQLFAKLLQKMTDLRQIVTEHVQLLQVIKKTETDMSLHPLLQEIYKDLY

[6] = molecular target: T3, Peroxisome proliferator-activated receptor delta; assay: Affinity On-target Cellular interaction: (Reporter gene assay (HEK293T cells)) EUB0000188b PPARD; format: functional, cell-based, HEK-293T; parameters: mode of action Agonist, recommended concentration 1 uM
[7] = molecular target: T5, Peroxisome proliferator-activated receptor alpha (Homo sapiens, UniProt Q07869); assay: Affinity On-target Cellular interaction: (Reporter gene assay (HEK293T cells)) EUB0000188b PPARA; format: functional, cell-based, HEK-293T; parameters: mode of action Agonist, recommended concentration 1 uM
T5 sequence (Q07869 whole entry): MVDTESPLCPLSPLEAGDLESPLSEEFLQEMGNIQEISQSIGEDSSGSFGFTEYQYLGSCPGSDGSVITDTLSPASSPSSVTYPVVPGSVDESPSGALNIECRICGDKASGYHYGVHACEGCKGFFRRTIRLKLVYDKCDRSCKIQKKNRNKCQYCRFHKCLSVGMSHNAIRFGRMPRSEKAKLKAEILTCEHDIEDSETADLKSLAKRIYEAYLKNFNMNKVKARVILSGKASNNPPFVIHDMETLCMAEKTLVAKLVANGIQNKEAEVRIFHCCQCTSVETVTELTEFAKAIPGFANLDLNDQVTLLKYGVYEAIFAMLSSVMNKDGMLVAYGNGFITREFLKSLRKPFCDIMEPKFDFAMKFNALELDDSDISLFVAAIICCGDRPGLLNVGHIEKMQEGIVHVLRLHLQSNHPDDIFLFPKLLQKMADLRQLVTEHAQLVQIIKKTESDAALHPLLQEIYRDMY

[8] = molecular target: T1, Oxysterols receptor LXR-beta
[9] = molecular target: T2, Oxysterols receptor LXR-alpha; assay: Affinity On-target Cellular interaction: (Reporter gene assay (HEK293T cells)) EUB0000082b NR1H3; format: functional, cell-based, HEK-293T; parameters: mode of action Agonist, recommended concentration 3 uM
[10] = molecular target: T5, Peroxisome proliferator-activated receptor alpha; assay: Affinity On-target Cellular interaction: (Reporter gene assay (HEK293T cells)) EUB0001147a PPARA; format: functional, cell-based, HEK-293T; parameters: mode of action Agonist, recommended concentration 1 uM
[11] = molecular target: T4, Peroxisome proliferator-activated receptor gamma; assay: Affinity On-target Cellular interaction: (Reporter gene assay (HEK293T cells)) EUB0001147a PPARG; format: functional, cell-based, HEK-293T; parameters: mode of action Agonist, recommended concentration 1 uM
[12] = molecular target: T4, Peroxisome proliferator-activated receptor gamma; assay: Affinity On-target Cellular interaction: (Reporter gene assay (HEK293T cells)) EUB0001150a PPARG; format: functional, cell-based, HEK-293T; parameters: mode of action Antagonist, recommended concentration 10 uM
[13] = molecular target: T5, Peroxisome proliferator-activated receptor alpha; assay: Affinity On-target Cellular interaction: (Reporter gene assay (HEK293T cells)) EUB0001150a PPARA; format: functional, cell-based, HEK-293T; parameters: mode of action Antagonist, recommended concentration 10 uM
[14] = molecular target: Vitamin D3 receptor (Homo sapiens, UniProt P11473); assay: Affinity On-target Cellular interaction: (Reporter gene assay (HEK293T cells)) EUB0000583a VDR; format: functional, cell-based, HEK-293T; parameters: mode of action Agonist, recommended concentration 1 uM
[15] = molecular target: T3, Peroxisome proliferator-activated receptor delta; assay: Affinity On-target Cellular interaction: (Reporter gene assay (HEK293T cells)) EUB0001141a PPARD; format: functional, cell-based, HEK-293T; parameters: mode of action Agonist, recommended concentration 1 uM
[16] = molecular target: T5, Peroxisome proliferator-activated receptor alpha; assay: Affinity On-target Cellular interaction: (Reporter gene assay (HEK293T cells)) EUB0000581a PPARA; format: functional, cell-based, HEK-293T; parameters: mode of action Agonist, recommended concentration 1 uM
[17] = molecular target: Retinoic acid receptor alpha (Homo sapiens, UniProt P10276); assay: Affinity On-target Cellular interaction: (Reporter gene assay (HEK293T cells)) EUB0000565a RARA; format: functional, cell-based, HEK-293T; parameters: mode of action Agonist, recommended concentration 1 uM
Chain of Retinoic acid receptor alpha (P10276 whole entry): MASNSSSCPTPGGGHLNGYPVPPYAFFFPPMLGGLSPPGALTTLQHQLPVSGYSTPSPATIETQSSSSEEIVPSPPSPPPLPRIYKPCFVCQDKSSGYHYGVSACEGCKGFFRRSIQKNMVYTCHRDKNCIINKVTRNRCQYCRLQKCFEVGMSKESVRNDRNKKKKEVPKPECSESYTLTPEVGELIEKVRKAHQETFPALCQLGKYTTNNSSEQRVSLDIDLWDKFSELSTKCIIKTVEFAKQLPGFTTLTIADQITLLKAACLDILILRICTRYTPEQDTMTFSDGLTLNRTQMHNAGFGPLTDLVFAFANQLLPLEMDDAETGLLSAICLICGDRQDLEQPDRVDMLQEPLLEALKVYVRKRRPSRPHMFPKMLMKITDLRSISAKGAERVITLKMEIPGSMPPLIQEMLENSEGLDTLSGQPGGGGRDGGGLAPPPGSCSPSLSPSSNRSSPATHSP

Chain of Vitamin D3 receptor (P11473 whole entry): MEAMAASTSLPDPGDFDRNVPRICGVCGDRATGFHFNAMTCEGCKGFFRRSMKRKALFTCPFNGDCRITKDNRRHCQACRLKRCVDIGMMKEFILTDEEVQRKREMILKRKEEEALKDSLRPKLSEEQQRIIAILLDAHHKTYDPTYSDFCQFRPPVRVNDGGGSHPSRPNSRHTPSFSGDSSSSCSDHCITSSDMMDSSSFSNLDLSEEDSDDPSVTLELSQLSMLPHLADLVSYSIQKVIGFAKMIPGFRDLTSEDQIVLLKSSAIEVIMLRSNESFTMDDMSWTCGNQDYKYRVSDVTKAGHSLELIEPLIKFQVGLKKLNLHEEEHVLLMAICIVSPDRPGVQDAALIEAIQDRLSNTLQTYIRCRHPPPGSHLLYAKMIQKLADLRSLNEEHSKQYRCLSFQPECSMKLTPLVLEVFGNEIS

SMILES: CCCc1c(OCCCOc2ccc(OCC(=O)O)cc2)ccc(C(C)=O)c1O
- EC50 [5]: 980 nM
- EC50 [6]: 15 nM
- EC50 [7]: 1000 nM

SMILES: Fc1ccc(-c2c3cccc(C(F)(F)F)c3nn2Cc2ccc(F)cc2Cl)cc1 [LXR-623]
- EC50 [8]: 4 µM
- EC50 [9]: 7 µM

SMILES: CSc1ccc(C(=O)/C=C/c2cc(C)c(OC(C)(C)C(=O)O)c(C)c2)cc1 [ELAFIBRANOR]
- EC50 [10]: 130 nM
- EC50 [11]: 410 nM

SMILES: COC(=O)c1sccc1S(=O)(=O)Nc1ccc(Nc2ccccc2)cc1OC
- IC50 [12]: 7.6 µM
- IC50 [13]: 6.1 µM

SMILES: CC(C)c1ccc(CC(=O)N2CCC[C@@H](c3cccc(OC(C)(C)C(=O)O)c3)C2)cc1
- EC50 [16]: 50 nM

Second part, the compound after the results:

- IC50 [1]: 40 nM
- IC50 [2]: 100 nM
SMILES: Cc1cc(C)c(S(=O)(=O)N(Cc2ccc(-c3cccc(S(C)(=O)=O)c3)cc2)Cc2ccc(C(F)(F)F)o2)c(C)c1

- EC50 [3]: 900 nM
SMILES: O=C(O)CCCc1cc2cc(Cl)ccc2n1S(=O)(=O)c1ccc2ncsc2c1 [LANIFIBRANOR]

- IC50 [4]: 100 nM
SMILES: O=C(NCCS(=O)(=O)c1ccc(C(F)(F)F)cn1)c1ccc(Cl)cc1

- EC50 [14]: 960 nM
SMILES: C=C1/C(=C\C=C2/CCC[C@]3(C)[C@@H]([C@H](C)/C=C/[C@H](C)C(C)C)CC[C@@H]23)C[C@@H](O)C[C@@H]1O [DOXERCALCIFEROL]

- EC50 [15]: 160 nM
SMILES: Cc1nc(-c2ccc(C(F)(F)F)cc2)sc1C(=O)NCc1ccc(OC(C)(C)C(=O)O)cc1 [GW590735]

- EC50 [17]: 110 nM
SMILES: CC1(C)C(=O)C(C)(C)c2cc(C(=O)Nc3ccc(C(=O)O)cc3)ccc21
